Measurements: US20240158446A1, “CYCLIC COMPOUND HAVING SELECTIVE INHIBITORY ACTION ON KRAS OVER HRAS AND NRAS” (CHUGAI SEIYAKU KABUSHIKI KAISHA, priority 2021, published 2024)
Where a SMILES comes first, the peptide text is derived from it. Bridges are numbered along the chain shown (N, C = ends). [ ]: non-standard residue; d: D form. hPhe(3-Cl-4-CF3) = N[C@@H](CCc1ccc(C(F)(F)F)c(Cl)c1)C(=O)O; NPrPhe(4-CF3) = CCCN[C@@H](Cc1ccc(C(F)(F)F)cc1)C(=O)O; NMeGly(cPent) = CN[C@H](C(=O)O)C1CCCC1; Pro(4,4-F2) = O=C(O)[C@@H]1CC(F)(F)CN1; Hyp = O=C(O)[C@@H]1C[C@@H](O)CN1; NMeL = CN[C@@H](CC(C)C)C(=O)O; Ac5c = NC1(C(=O)O)CCCC1; Ac4c = NC1(C(=O)O)CCC1; NEtG = CCNCC(=O)O; Sar = CNCC(=O)O

Experiments:
[1] = target: GDP-bound HRAS wild-type protein (Homo sapiens, UniProt P01112); assay: Binding to HRAS by surface plasmon resonance (SPR), Single Cycle Kinetics; settings: SPR, GDP-bound HRAS wild-type protein vs GDP-bound KRAS wild-type protein
Chain of GDP-bound HRAS wild-type protein (P01112 whole entry): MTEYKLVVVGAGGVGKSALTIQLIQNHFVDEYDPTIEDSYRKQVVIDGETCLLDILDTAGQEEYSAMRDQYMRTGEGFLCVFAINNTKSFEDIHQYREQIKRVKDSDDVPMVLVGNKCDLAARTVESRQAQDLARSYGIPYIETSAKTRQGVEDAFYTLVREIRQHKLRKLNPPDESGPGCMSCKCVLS

[2] = target: GDP-bound NRAS wild-type protein (Homo sapiens, UniProt P01111); assay: Binding to NRAS by surface plasmon resonance (SPR), Single Cycle Kinetics; settings: SPR, GDP-bound NRAS wild-type protein vs GDP-bound KRAS wild-type protein
Chain of GDP-bound NRAS wild-type protein (P01111 whole entry): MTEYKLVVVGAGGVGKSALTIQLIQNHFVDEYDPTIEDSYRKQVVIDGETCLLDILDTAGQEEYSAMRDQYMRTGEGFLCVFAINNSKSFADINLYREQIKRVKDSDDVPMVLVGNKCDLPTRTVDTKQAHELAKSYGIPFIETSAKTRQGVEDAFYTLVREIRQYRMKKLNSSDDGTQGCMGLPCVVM

[3] = target: GDP-bound KRAS wild-type protein (Homo sapiens, UniProt P01116); assay: Binding to KRAS by surface plasmon resonance (SPR), Single Cycle Kinetics; settings: SPR Single Cycle Kinetics, GDP-bound KRAS wild-type protein, 1:1 binding model; read-out: KRAS KD
Chain of GDP-bound KRAS wild-type protein (P01116 whole entry): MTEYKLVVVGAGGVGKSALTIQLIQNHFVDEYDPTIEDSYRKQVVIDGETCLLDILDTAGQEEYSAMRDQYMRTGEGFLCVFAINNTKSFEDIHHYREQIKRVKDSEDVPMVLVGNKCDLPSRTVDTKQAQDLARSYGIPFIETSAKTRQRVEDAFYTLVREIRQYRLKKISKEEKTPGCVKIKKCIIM

SMILES	HRAS/KRAS (ratio of KD value for HRAS to KD value for KRAS) [1]	NRAS/KRAS (ratio of KD value for NRAS to KD value for KRAS) [2]	Kd [3] [nM]
CCCN1C(=O)CN(C)C(=O)CN(C)C(=O)[C@H]([C@@H](C)CC)NC(=O)[C@H](CC(C)C)N(C)C(=O)C[C@@H](C(=O)N(C)C)NC(=O)[C@H](C2CCCC2)N(C)C(=O)C2(CCC2)NC(=O)[C@@H]2C[C@@H](OCC)CN2C(=O)[C@H](CCc2ccc(C(F)(F)F)c(Cl)c2)NC(=O)CN(C)C(=O)[C@@H]1Cc1ccc(C(F)(F)F)cc1 [PP0360] ([NMeL]I[Sar][Sar][NPrPhe(4-CF3)][Sar][hPhe(3-Cl-4-CF3)][Hyp](Et)[Ac4c][NMeGly(cPent)]D-NMe2; lactam N-11)	C (A compound having a KD ratio of 0.1 or more and less than 3 is denoted as C)	B (a compound having 3 or more and less than 10 is denoted as B)	0.25
CCCN1C(=O)CN(C)C(=O)CNC(=O)[C@H]([C@@H](C)CC)NC(=O)[C@H](CC(C)C)N(C)C(=O)C[C@@H](C(=O)N(C)C)NC(=O)[C@H](C2CCCC2)N(C)C(=O)C2(CCCC2)NC(=O)[C@@H]2CCCN2C(=O)[C@H](CCc2ccc(C(F)(F)F)c(Cl)c2)NC(=O)CN(C)C(=O)[C@@H]1Cc1ccc(C(F)(F)F)cc1 [PP0361] ([NMeL]IG[Sar][NPrPhe(4-CF3)][Sar][hPhe(3-Cl-4-CF3)]P[Ac5c][NMeGly(cPent)]D-NMe2; lactam N-11)	C (A compound having a KD ratio of 0.1 or more and less than 3 is denoted as C)	B (a compound having 3 or more and less than 10 is denoted as B)	0.72
CCCN1C(=O)CN(C)C(=O)CNC(=O)[C@H]([C@@H](C)CC)NC(=O)[C@H](CC(C)C)N(C)C(=O)C[C@@H](C(=O)N(C)C)NC(=O)[C@H](C2CCCC2)N(C)C(=O)C2(CCC2)NC(=O)[C@@H]2CCCN2C(=O)[C@H](CCc2ccc(C(F)(F)F)c(Cl)c2)NC(=O)CN(C)C(=O)[C@@H]1Cc1ccc(C(F)(F)F)cc1 [PP0362] ([NMeL]IG[Sar][NPrPhe(4-CF3)][Sar][hPhe(3-Cl-4-CF3)]P[Ac4c][NMeGly(cPent)]D-NMe2; lactam N-11)	B (a compound having 3 or more and less than 10 is denoted as B)	B (a compound having 3 or more and less than 10 is denoted as B)	1
CCCN1C(=O)CN(C)C(=O)CNC(=O)[C@H]([C@@H](C)CC)NC(=O)[C@H](CC(C)C)N(C)C(=O)C[C@@H](C(=O)N(C)C)NC(=O)[C@H](C2CCCC2)N(C)C(=O)C2(CCCC2)NC(=O)[C@@H]2CC(F)(F)CN2C(=O)[C@H](CCc2ccc(C(F)(F)F)c(Cl)c2)NC(=O)CN(C)C(=O)[C@@H]1Cc1ccc(C(F)(F)F)cc1 [PP0363] ([NMeL]IG[Sar][NPrPhe(4-CF3)][Sar][hPhe(3-Cl-4-CF3)][Pro(4,4-F2)][Ac5c][NMeGly(cPent)]D-NMe2; lactam N-11)	C (A compound having a KD ratio of 0.1 or more and less than 3 is denoted as C)	B (a compound having 3 or more and less than 10 is denoted as B)	1
CCCN1C(=O)CN(C)C(=O)CNC(=O)[C@H]([C@@H](C)CC)NC(=O)[C@H](CC(C)C)N(C)C(=O)C[C@@H](C(=O)N(C)C)NC(=O)[C@H](C2CCCC2)N(C)C(=O)C2(CCC2)NC(=O)[C@@H]2CC(F)(F)CN2C(=O)[C@H](CCc2ccc(C(F)(F)F)c(Cl)c2)NC(=O)CN(C)C(=O)[C@@H]1Cc1ccc(C(F)(F)F)cc1 [PP0364] ([NMeL]IG[Sar][NPrPhe(4-CF3)][Sar][hPhe(3-Cl-4-CF3)][Pro(4,4-F2)][Ac4c][NMeGly(cPent)]D-NMe2; lactam N-11)	B (a compound having 3 or more and less than 10 is denoted as B)	B (a compound having 3 or more and less than 10 is denoted as B)	0.77
CCCN1C(=O)CN(C)C(=O)CNC(=O)[C@H]([C@@H](C)CC)NC(=O)[C@H](CC(C)C)N(C)C(=O)C[C@@H](C(=O)N(C)C)NC(=O)[C@H](C2CCCC2)N(C)C(=O)C2(CCCC2)NC(=O)[C@@H]2C[C@@H](OCC)CN2C(=O)[C@H](CCc2ccc(C(F)(F)F)c(Cl)c2)NC(=O)CN(C)C(=O)[C@@H]1Cc1ccc(C(F)(F)F)cc1 [PP0365] ([NMeL]IG[Sar][NPrPhe(4-CF3)][Sar][hPhe(3-Cl-4-CF3)][Hyp](Et)[Ac5c][NMeGly(cPent)]D-NMe2; lactam N-11)	B (a compound having 3 or more and less than 10 is denoted as B)	B (a compound having 3 or more and less than 10 is denoted as B)	0.29
CCCN1C(=O)CN(C)C(=O)CNC(=O)[C@H]([C@@H](C)CC)NC(=O)[C@H](CC(C)C)N(C)C(=O)C[C@@H](C(=O)N(C)C)NC(=O)[C@H](C2CCCC2)N(C)C(=O)C2(CCC2)NC(=O)[C@@H]2C[C@@H](OCC)CN2C(=O)[C@H](CCc2ccc(C(F)(F)F)c(Cl)c2)NC(=O)CN(C)C(=O)[C@@H]1Cc1ccc(C(F)(F)F)cc1 [PP0366] ([NMeL]IG[Sar][NPrPhe(4-CF3)][Sar][hPhe(3-Cl-4-CF3)][Hyp](Et)[Ac4c][NMeGly(cPent)]D-NMe2; lactam N-11)	B (a compound having 3 or more and less than 10 is denoted as B)	B (a compound having 3 or more and less than 10 is denoted as B)	0.38
CCCN1C(=O)CN(C)C(=O)CN(CC)C(=O)[C@H]([C@@H](C)CC)NC(=O)[C@H](CC(C)C)N(C)C(=O)C[C@@H](C(=O)N(C)C)NC(=O)[C@H](C2CCCC2)N(C)C(=O)C2(CCCC2)NC(=O)[C@@H]2CCCN2C(=O)[C@H](CCc2ccc(C(F)(F)F)c(Cl)c2)NC(=O)CN(C)C(=O)[C@@H]1Cc1ccc(C(F)(F)F)cc1 [PP0367] ([NMeL]I[NEtG][Sar][NPrPhe(4-CF3)][Sar][hPhe(3-Cl-4-CF3)]P[Ac5c][NMeGly(cPent)]D-NMe2; lactam N-11)	B (a compound having 3 or more and less than 10 is denoted as B)	B (a compound having 3 or more and less than 10 is denoted as B)	1.3
CCCN1C(=O)CN(C)C(=O)CN(CC)C(=O)[C@H]([C@@H](C)CC)NC(=O)[C@H](CC(C)C)N(C)C(=O)C[C@@H](C(=O)N(C)C)NC(=O)[C@H](C2CCCC2)N(C)C(=O)C2(CCC2)NC(=O)[C@@H]2CCCN2C(=O)[C@H](CCc2ccc(C(F)(F)F)c(Cl)c2)NC(=O)CN(C)C(=O)[C@@H]1Cc1ccc(C(F)(F)F)cc1 [PP0368] ([NMeL]I[NEtG][Sar][NPrPhe(4-CF3)][Sar][hPhe(3-Cl-4-CF3)]P[Ac4c][NMeGly(cPent)]D-NMe2; lactam N-11)	B (a compound having 3 or more and less than 10 is denoted as B)	B (a compound having 3 or more and less than 10 is denoted as B)	1.7
CCCN1C(=O)CN(C)C(=O)CN(CC)C(=O)[C@H]([C@@H](C)CC)NC(=O)[C@H](CC(C)C)N(C)C(=O)C[C@@H](C(=O)N(C)C)NC(=O)[C@H](C2CCCC2)N(C)C(=O)C2(CCCC2)NC(=O)[C@@H]2CC(F)(F)CN2C(=O)[C@H](CCc2ccc(C(F)(F)F)c(Cl)c2)NC(=O)CN(C)C(=O)[C@@H]1Cc1ccc(C(F)(F)F)cc1 [PP0369] ([NMeL]I[NEtG][Sar][NPrPhe(4-CF3)][Sar][hPhe(3-Cl-4-CF3)][Pro(4,4-F2)][Ac5c][NMeGly(cPent)]D-NMe2; lactam N-11)	C (A compound having a KD ratio of 0.1 or more and less than 3 is denoted as C)	B (a compound having 3 or more and less than 10 is denoted as B)	1.9
CCCN1C(=O)CN(C)C(=O)CN(CC)C(=O)[C@H]([C@@H](C)CC)NC(=O)[C@H](CC(C)C)N(C)C(=O)C[C@@H](C(=O)N(C)C)NC(=O)[C@H](C2CCCC2)N(C)C(=O)C2(CCC2)NC(=O)[C@@H]2CC(F)(F)CN2C(=O)[C@H](CCc2ccc(C(F)(F)F)c(Cl)c2)NC(=O)CN(C)C(=O)[C@@H]1Cc1ccc(C(F)(F)F)cc1 [PP0370] ([NMeL]I[NEtG][Sar][NPrPhe(4-CF3)][Sar][hPhe(3-Cl-4-CF3)][Pro(4,4-F2)][Ac4c][NMeGly(cPent)]D-NMe2; lactam N-11)	C (A compound having a KD ratio of 0.1 or more and less than 3 is denoted as C)	B (a compound having 3 or more and less than 10 is denoted as B)	1.5
CCCN1C(=O)CN(C)C(=O)CN(CC)C(=O)[C@H]([C@@H](C)CC)NC(=O)[C@H](CC(C)C)N(C)C(=O)C[C@@H](C(=O)N(C)C)NC(=O)[C@H](C2CCCC2)N(C)C(=O)C2(CCCC2)NC(=O)[C@@H]2C[C@@H](OCC)CN2C(=O)[C@H](CCc2ccc(C(F)(F)F)c(Cl)c2)NC(=O)CN(C)C(=O)[C@@H]1Cc1ccc(C(F)(F)F)cc1 [PP0371] ([NMeL]I[NEtG][Sar][NPrPhe(4-CF3)][Sar][hPhe(3-Cl-4-CF3)][Hyp](Et)[Ac5c][NMeGly(cPent)]D-NMe2; lactam N-11)	C (A compound having a KD ratio of 0.1 or more and less than 3 is denoted as C)	B (a compound having 3 or more and less than 10 is denoted as B)	0.48
